US20240352036A1, “CRYSTALLINE FORMS OF RAS INHIBITORS, COMPOSITIONS CONTAINING THE SAME, AND METHODS OF USE THEREOF” (Revolution Medicines, Inc., priority 2023, published 2024)

Legend:
Format in all cases: physicochemical
[1] = variable humidity XRPD of crystalline Form 1; conditions: 25° C., XRPD at each RH
Experimental: In another method, crystalline Form 1 was subjected to variable humidity XRPD experiments. In this experiment, two relative humidity (RH) cycles were applied at 25° C. XRPD analysis was carried out in each specific relative humidity. Cycle 1: 40% RH (initial)-40% RH (3 h)-60% RH (3 h)-80% RH (3 h)-95% RH (3 h)-80% RH (3 h)-60% RH (3 h)-40% RH (3 h)-20% RH (3 h) 0% RH (3 h); Cycle 2: 20% RH (3 h)-40% RH (3 h).

[2] = XRPD monitoring over time of pure Form 1 from a saturated diethyl ether slurry
Experimental: The formation of Form 2 is indicated by the presence of an intense peak at 4.8° 2θ (FIG. 2), which is absent in pure samples of Form 1 (FIG. 1 and FIG. 3). To study the formation of Form 2, a saturated slurry of Compound A was prepared in diethyl ether, which produced pure Form 1 at time=0 hr, and this pure sample was monitored over time using XRPD analysis. A shoulder peak at 4.8° 2θ was detected after approx. 2 hours and increased in intensity compared to the original Form 1 peaks after 4 and 17 days (FIG. 4).

[3] = storage under ambient conditions followed by XRPD; conditions: two weeks of storage under ambient conditions (room temperature)

CCn1c(-c2cccnc2[C@H](C)OC)c2c3cc(ccc31)N1CCO[C@@H](C[C@H](NC(=O)[C@H](C(C)C)N(C)C(=O)C3(F)CCN(C(=O)C#CC(C)(C)N(C)C)CC3)C(=O)N3CCC[C@H](N3)C(=O)OCC(C)(C)C2)C1 (atropisomer, axis not shown) [Form 1]
solid form conversion at relative humidity higher than 80% RH ([1]; two RH cycles 0-95% RH, 3 h per step, RH higher than 80%): converted or partially converted to Form 2 | time until the Form 2 shoulder peak at 4.8° 2θ was detected ([2]; pure Form 1 at time=0 hr from saturated diethyl ether slurry, peak increased in intensity after 4 and 17 days): approx. 2 hours | solid form stability over time (XRPD) ([2]; pure Form 1 monitored up to 17 days): may produce a mixture of Forms 1 and 2 over time

CCn1c(-c2cccnc2[C@H](C)OC)c2c3cc(ccc31)N1CCO[C@@H](C[C@H](NC(=O)[C@H](C(C)C)N(C)C(=O)C3(F)CCN(C(=O)C#CC(C)(C)N(C)C)CC3)C(=O)N3CCC[C@H](N3)C(=O)OCC(C)(C)C2)C1 (atropisomer, axis not shown) [Form 2]
solid form conversion at relative humidity lower than 80% ([1]; two RH cycles, RH lower than 80%): converted back to Form 1

CCn1c(-c2cccnc2[C@H](C)OC)c2c3cc(ccc31)N1CCO[C@@H](C[C@H](NC(=O)[C@H](C(C)C)N(C)C(=O)C3(F)CCN(C(=O)C#CC(C)(C)N(C)C)CC3)C(=O)N3CCC[C@H](N3)C(=O)OCC(C)(C)C2)C1 (atropisomer, axis not shown) [Form 4]
solid form stability on storage (XRPD) [3]: converted to a disordered material
